Measurements published in ChEMBL document CHEMBL5236621, “Synthesis and biological evaluation of N-(benzene sulfonyl)acetamide derivatives as anti-inflammatory and analgesic agents with COX-2/5-LOX/TRPV1 multifunctional inhibitory activity” (Bioorg Med Chem Lett, 2023).

Assays:
[1] = molecular target: T1, Polyunsaturated fatty acid 5-lipoxygenase (Homo sapiens, UniProt P09917); experiment: Inhibition of 5-LOX (unknown origin)
T1 sequence (P09917 whole entry): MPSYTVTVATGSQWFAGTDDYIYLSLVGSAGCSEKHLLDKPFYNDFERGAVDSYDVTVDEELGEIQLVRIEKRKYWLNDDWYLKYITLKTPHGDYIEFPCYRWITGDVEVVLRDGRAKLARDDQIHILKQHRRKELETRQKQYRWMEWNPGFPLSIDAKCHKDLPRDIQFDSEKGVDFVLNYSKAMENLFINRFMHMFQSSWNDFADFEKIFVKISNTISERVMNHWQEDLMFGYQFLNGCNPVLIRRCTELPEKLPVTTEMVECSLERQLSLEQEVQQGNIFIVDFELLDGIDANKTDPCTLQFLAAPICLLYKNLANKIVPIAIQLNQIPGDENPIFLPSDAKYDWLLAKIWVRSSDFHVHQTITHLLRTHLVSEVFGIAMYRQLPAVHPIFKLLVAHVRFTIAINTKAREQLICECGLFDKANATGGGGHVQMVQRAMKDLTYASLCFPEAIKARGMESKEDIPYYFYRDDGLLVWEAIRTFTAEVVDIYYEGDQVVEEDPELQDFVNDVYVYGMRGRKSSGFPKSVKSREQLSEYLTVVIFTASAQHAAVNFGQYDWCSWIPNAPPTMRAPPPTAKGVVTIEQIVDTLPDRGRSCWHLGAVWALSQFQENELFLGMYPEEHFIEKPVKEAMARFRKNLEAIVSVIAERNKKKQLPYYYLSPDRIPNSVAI

[2] = molecular target: Prostaglandin G/H synthase 2
[3] = molecular target: Transient receptor potential cation channel subfamily V member 1 (Homo sapiens, UniProt Q8NER1); experiment: Inhibition of TRPV1 (unknown origin)
Transient receptor potential cation channel subfamily V member 1, sequence (Q8NER1 whole entry): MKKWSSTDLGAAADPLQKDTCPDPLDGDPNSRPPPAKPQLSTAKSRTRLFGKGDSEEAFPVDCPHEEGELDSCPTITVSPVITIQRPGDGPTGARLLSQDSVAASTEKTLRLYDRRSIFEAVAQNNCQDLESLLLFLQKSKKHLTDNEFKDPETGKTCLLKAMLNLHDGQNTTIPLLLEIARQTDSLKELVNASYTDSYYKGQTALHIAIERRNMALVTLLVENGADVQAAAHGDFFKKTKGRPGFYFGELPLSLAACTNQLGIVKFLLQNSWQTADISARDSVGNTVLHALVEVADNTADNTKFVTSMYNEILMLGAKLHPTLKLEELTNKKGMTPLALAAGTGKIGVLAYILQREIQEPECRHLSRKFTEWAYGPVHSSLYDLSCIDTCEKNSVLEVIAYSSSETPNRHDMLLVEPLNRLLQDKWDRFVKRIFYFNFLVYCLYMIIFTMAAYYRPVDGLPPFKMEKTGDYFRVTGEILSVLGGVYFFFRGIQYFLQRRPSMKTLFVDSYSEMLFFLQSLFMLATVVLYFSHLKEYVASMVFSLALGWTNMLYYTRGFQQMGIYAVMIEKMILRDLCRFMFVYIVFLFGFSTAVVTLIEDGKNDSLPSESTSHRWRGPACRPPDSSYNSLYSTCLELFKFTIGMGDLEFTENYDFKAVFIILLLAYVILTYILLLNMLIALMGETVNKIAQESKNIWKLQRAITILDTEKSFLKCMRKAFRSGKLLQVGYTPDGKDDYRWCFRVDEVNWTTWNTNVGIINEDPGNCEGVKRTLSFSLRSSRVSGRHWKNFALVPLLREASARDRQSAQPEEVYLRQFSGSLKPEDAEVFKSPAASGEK

[4] = Tmax in Sprague-Dawley rat at 10 mg/kg, IG; format: ADME, organism-based; conditions: in vivo, po
[5] = Cmax in Sprague-Dawley rat at 10 mg/kg, IG; format: ADME, organism-based; set-up: dose 10 mg/kg, route ig; conditions: in vivo, po
Mus musculus [6] = species: Mus musculus; experiment: Analgesic activity in formalin-induced mouse pain model assessed as reduction in immediate response by measuring licking time; format: functional
[7] = Bioavailability in Sprague-Dawley rat at 1 mg/kg, iv; format: ADME, organism-based; conditions: in vivo
[8] = Apparent clearance in Sprague-Dawley rat at 1 mg/kg, iv; format: ADME, organism-based; conditions: in vivo
Mus musculus [9] = species: Mus musculus; experiment: Analgesic activity in formalin-induced mouse pain model assessed as time consumed for nociceptive behavior by measuring licking time; format: functional
Mus musculus [10] = experiment: Antiinflammatory activity against capsaicin-induced mouse ear edema model assessed as decrease in ear thickness at 20 mg/kg relative to control; format: functional

Compound	IC50 [1] [nM]	IC50 [2] [nM]	IC50 [3] [nM]	Tmax [4] [h]	Cmax [5] [ng/mL]	Time (Mus musculus [6]) [min]	bioavailability [7] [%]	clearance [8] [mL/min/kg]	Time (Mus musculus [9]) [s]	inhibition in vivo at 20 mg/kg (Mus musculus [10]) [%]
Cc1ccc(-c2cc(C(F)(F)F)nn2-c2ccc(S(=O)(=O)NC(=O)CCCCC3CCSS3)cc2)cc1 (stereo unspecified)	1420	370	> 10000	–	–	–	–	–	–	–
Cc1ccc(-c2cc(C(F)(F)F)nn2-c2ccc(S(=O)(=O)NC(=O)C(C)c3ccc(CC(C)C)cc3)cc2)cc1 (stereo unspecified)	520	25	1030	–	–	–	–	–	–	–
Cc1ccc(-c2cc(C(F)(F)F)nn2-c2ccc(S(=O)(=O)NC(=O)c3ccccc3)cc2)cc1	120	76	–	–	–	–	–	–	–	–
COc1cc(C(=O)[N-]S(=O)(=O)c2ccc(-n3nc(C(F)(F)F)cc3-c3ccc(C)cc3)cc2)ccc1[O-].[Na+].[Na+]	460	11	–	4.5	5810	0	96.8	3.24	85.5	–
COc1cc(/C=C/C(=O)[N-]S(=O)(=O)c2ccc(-n3nc(C(F)(F)F)cc3-c3ccc(C)cc3)cc2)ccc1[O-].[Na+].[Na+]	310	23	140	–	–	–	13.3	8.64	–	–
CCOC(=O)NS(=O)(=O)c1ccc(-n2nc(C(F)(F)F)cc2-c2ccc(C)cc2)cc1	920	35	–	–	–	–	–	–	–	–
Cc1ccc(-c2cc(C(F)(F)F)nn2-c2ccc(S(N)(=O)=O)cc2)cc1 [CELECOXIB]	> 10000	–	> 10000	–	–	–	–	–	–	48.8
